From patent US5304474A, “Hydrophobic peptide esters and amides” (Board of Regents, The University of Texas System, priority 1991, dated 1994)
Where two headings read alike, the source gives them in different places.

Columns and labels:
[1] = test system: production of a TCA insoluble product from [^3 H]Leu-Leu-OMe; type: cell-based, human
From the text: Iodoacetamide nonspecifically binds covalently to free sulfhydryl groups and thereby inhibits thiol protease function as well as other enzymatic reactions dependent on the presence of reduced sulfhydryl groups.

[2] = test system: [^3 H]Leu-Leu-OMe uptake by PBL (facilitated transport); test: Competitive inhibition of [3H]Leu-Leu-OMe uptake; type: cell-based, human; details: for inhibition at 250 µM: Homo sapiens, unlabeled compound 250 microM, [3H]Leu-Leu-OMe 10 microM (Table 5)
Experimental: Human peripheral blood lymphocytes (PBL) were incubated in the presence of [^3 H]labeled Leu-Leu-OMe at 22° C. for varying lengths of time. The incubation mixture was then centrifuged through silicone oil to separate the cells from any unbound or non-internalized [^3 HLeu-Leu-OMe. […] At 37° C., levels of [^3 H]Leu-Leu-OMe accumulation by PBL were increased above those seen at 22° C. (see Table 4).

[3] = molecular target: dipeptidyl peptidase I (DPPI) (Bos taurus, UniProt Q3ZCJ8); test: Dipeptidyl peptidase I catalyzed lysis of human RBC; type: cell-based, bovine; details: FIG. 12, FIG. 13
dipeptidyl peptidase I (DPPI), sequence (Q3ZCJ8 231-394 limits assumed): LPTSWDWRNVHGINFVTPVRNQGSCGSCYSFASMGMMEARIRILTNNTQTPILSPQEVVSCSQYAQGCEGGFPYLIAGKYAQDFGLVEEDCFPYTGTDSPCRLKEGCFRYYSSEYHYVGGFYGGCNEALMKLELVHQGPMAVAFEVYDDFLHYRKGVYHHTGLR
dipeptidyl peptidase I (DPPI), sequence (Q3ZCJ8 25-134 limits assumed): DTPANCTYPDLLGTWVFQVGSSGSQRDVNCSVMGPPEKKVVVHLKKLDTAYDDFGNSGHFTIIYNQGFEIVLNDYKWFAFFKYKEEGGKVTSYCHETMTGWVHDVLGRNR
dipeptidyl peptidase I (DPPI), sequence (Q3ZCJ8 395-463 limits assumed): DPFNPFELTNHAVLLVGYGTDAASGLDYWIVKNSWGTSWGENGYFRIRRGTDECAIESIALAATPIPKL
Experimental: The following experiments were carried out to determine whether DPPI could generate a lytic product from Leu-Leu-OMe. In the experiment detailed in FIG. 12, ^51 Cr-labeled human erythrocytes (RBC) were incubated with varying concentrations of Leu-Leu-OMe alone or in the presence of purified bovine DPPI.
In the experiments detailed in FIG. 13, ^51 Cr-labeled RBC's were exposed to various dipeptide esters or amides in the presence or absence of purified DPPI. […] The first observation is probably related to the inability of this enzyme to catalyze transpeptidation of peptide esters containing D-stereoisomers of amino acids. The latter observations are likely to be related to the fact that polymers of Ser-Leu or Leu-Tyr are not hydrophobic and therefore unlikely to enter and disrupt cell membranes.

[4] = test system: natural killer cells (NK); test: NK function: lysis of K562 target cells (51Cr release) after preincubation of lymphocytes with compound; details: for NK toxicity / effect on NK function, in words: lymphocytes exposed 15 minutes at room temperature (FIG. 4, FIG. 5)
Experimental: PBM were separated from heparinized venous blood of healthy donors by centrifugation over sodium diatrizoate-Ficoll gradients (Isolymph, Gallard-Schlesinger Chemical Mfg. Corp., Carle Place, N.Y.).
All cell exposures to the amino acids, dipeptides or their methyl esters were carried out by suspending cells in Dulbecco's phosphate buffered saline (PBS) and incubating them at room temperature with the reagent at the indicated concentration and time interval.
Percent of control cytotoxicity was calculated using the formula: [formula]

[5] = Expt. 1, Cycloheximide 100 micro-g/ml, PMSF 1 micro-M, Iodoacetamide 0.5 micro-M, Nil 2,160 + 193

| Compound | [^3 H]Leu--Leu--OMe Incorporation, 10% TCA Precipitate [1, 5] | [^3 H]Leu--Leu--OMe Incorporation, 10% TCA Precipitate [1] | [^3 H]Leu--Leu--OMe Incorporation, Initial [1] | competitive inhibition of [3H]Leu-Leu-OMe uptake, in words [2] | inhibition at 250 µM [2] [%] | RBC lysis in the presence of purified DPPI, in words [3] | NK toxicity / effect on NK function, in words [4] | NK activity ([4]; PBM, 5 mM (FIG. 1)) |
| --- | --- | --- | --- | --- | --- | --- | --- | --- |
| O=S(=O)(F)Cc1ccccc1 [PMSF, phenylmethylsulfonylfluoride] | 2,078 + 213 cpm | – | – | – | – | – | – | – |
| NC(=O)CI [Iodoacetamide, iodoacetamide] | 140 + 5 cpm | 243 + 16 cpm | 6,316 + 188 cpm | – | – | – | – | – |
| CC(C)C[C@H](NC(=O)[C@@H](N)CC(C)C)C(=O)O [Leu-Leu, L-leucyl L-leucine, reference compound] | – | – | – | competitively inhibited | 44 | not polymerized by DPPI to form a product capable of lysing RBC's | had no inhibitory effect | – |
| COC(=O)[C@@H](N)CC(C)C [Leu-OMe, L-leucine methyl ester, reference compound] | – | – | – | do not competitively inhibit PBL uptake of L-Leu-L-Leu-OMe | -10 | not polymerized by DPPI to form a product capable of lysing RBC's | had no irreversible effect on NK function | ablated all NK activity |
